Reference: US20090105270A1, “Kinase inhibition and anticancer therapy” (priority 2007, published 2009)

Key:
BRK(h) = BRK(h) (Homo sapiens, UniProt Q13882); experiment: Upstate kinase activity inhibition assay BRK(h); conditions: 40 min, read-out: percentage of enzyme activity that remains
PKCβI(h) = biological target: T1, PKCβI(h) (Homo sapiens, UniProt P05771); experiment: Upstate kinase activity inhibition assay PKCβI(h); format: biochemical; conditions: 40 min; read-out: percentage of enzyme activity that remains
T1 construct: purchased Upstate (KinaseProfiler service)

MuSK(h) = MuSK(h) (Homo sapiens, UniProt O15146); experiment: Upstate kinase activity inhibition assay MuSK(h); conditions: 40 min, read-out: percentage of enzyme activity that remains
EphB2(h) = EphB2(h) (Homo sapiens, UniProt P29323); experiment: Upstate kinase activity inhibition assay EphB2(h)
MINK(h) = biological target: T2, MINK(h) (Homo sapiens, UniProt Q8N4C8); experiment: Upstate kinase activity inhibition assay MINK(h); format: biochemical; conditions: 40 min; read-out: percentage of enzyme activity that remains
T2 construct: purchased Upstate (KinaseProfiler service)

Lyn(h) = biological target: T3, Lyn(h) (Homo sapiens, UniProt P07948); experiment: Upstate kinase activity inhibition assay Lyn(h); format: biochemical; conditions: 40 min; read-out: percentage of enzyme activity that remains
T3 construct: purchased Upstate (KinaseProfiler service)

NEK11(h) = NEK11(h) (Homo sapiens, UniProt Q8NG66); experiment: Upstate kinase activity inhibition assay NEK11(h); conditions: 40 min, read-out: percentage of enzyme activity that remains
Flt3(h) = Flt3(h) (Homo sapiens, UniProt P36888); experiment: Upstate kinase activity inhibition assay Flt3(h); conditions: 40 min, read-out: percentage of enzyme activity that remains
SAPK4(h) = SAPK4(h) (Homo sapiens, UniProt O15264); experiment: Upstate kinase activity inhibition assay SAPK4(h); conditions: 40 min, read-out: percentage of enzyme activity that remains
ARK5(h) = ARK5(h) (Homo sapiens, UniProt O60285); experiment: Upstate kinase activity inhibition assay ARK5(h)
HIPK1(h) = HIPK1(h) (Homo sapiens, UniProt Q86Z02); experiment: Upstate kinase activity inhibition assay HIPK1(h); conditions: 40 min, read-out: percentage of enzyme activity that remains
ALK4(h) = ALK4(h) (Homo sapiens, UniProt P36896); experiment: Upstate kinase activity inhibition assay ALK4(h); conditions: 40 min, read-out: percentage of enzyme activity that remains
IRAK1(h) = IRAK1(h) (Homo sapiens, UniProt P51617); experiment: Upstate kinase activity inhibition assay IRAK1(h); conditions: 40 min, read-out: percentage of enzyme activity that remains
IRAK4(h) = biological target: T4, IRAK4(h) (Homo sapiens, UniProt Q9NWZ3); experiment: Upstate kinase activity inhibition assay IRAK4(h); format: biochemical; conditions: 4 μM Compound E
T4 construct: purchased Upstate (KinaseProfiler service)

CDK1/cyclinB(h) = CDK1/cyclinB(h) (Homo sapiens, UniProt P06493); experiment: Upstate kinase activity inhibition assay CDK1/cyclinB(h); conditions: 40 min, read-out: percentage of enzyme activity that remains
Pyk2(h) = biological target: T5, Pyk2(h) (Homo sapiens, UniProt Q14289); experiment: Upstate kinase activity inhibition assay Pyk2(h); format: biochemical; conditions: 40 min; read-out: percentage of enzyme activity that remains
T5 construct: purchased Upstate (KinaseProfiler service)

BrSK2(h) = biological target: T6, BrSK2(h) (Homo sapiens, UniProt Q8IWQ3); experiment: Upstate kinase activity inhibition assay BrSK2(h); format: biochemical; conditions: 40 min; read-out: percentage of enzyme activity that remains
T6 construct: purchased Upstate (KinaseProfiler service)

Snk(h) = Snk(h) (Homo sapiens, UniProt Q9NYY3); experiment: Upstate kinase activity inhibition assay Snk(h)
MKK7β(h) = MKK7β(h) (Homo sapiens, UniProt O14733); experiment: Upstate kinase activity inhibition assay MKK7β(h)
Mnk2(h) = biological target: T7, Mnk2(h) (Homo sapiens, UniProt Q9HBH9); experiment: Upstate kinase activity inhibition assay Mnk2(h); format: biochemical; conditions: 40 min; read-out: percentage of enzyme activity that remains
T7 construct: purchased Upstate (KinaseProfiler service)

IKKβ(h) = IKKβ(h) (Homo sapiens, UniProt O14920); experiment: Upstate kinase activity inhibition assay IKKβ(h); conditions: 40 min, read-out: percentage of enzyme activity that remains
Rsk3(h) = Rsk3(h) (Homo sapiens, UniProt Q15349); experiment: Upstate kinase activity inhibition assay Rsk3(h); conditions: 40 min, read-out: percentage of enzyme activity that remains
EphA4(h) = EphA4(h) (Homo sapiens, UniProt P54764); experiment: Upstate kinase activity inhibition assay EphA4(h); conditions: 40 min, read-out: percentage of enzyme activity that remains
Fgr(h) = Fgr(h) (Homo sapiens, UniProt P09769); experiment: Upstate kinase activity inhibition assay Fgr(h); conditions: 40 min, read-out: percentage of enzyme activity that remains
EGFR(L858R)(h) = biological target: T8, EGFR(L858R)(h) (Homo sapiens, UniProt P00533, L858R); experiment: Upstate kinase activity inhibition assay EGFR(L858R)(h); format: biochemical; conditions: 4 μM Compound E
T8 construct: purchased Upstate (KinaseProfiler service)

IGF-1R(h) = IGF-1R(h) (Homo sapiens, UniProt P08069); experiment: Upstate kinase activity inhibition assay IGF-1R(h); conditions: 40 min, read-out: percentage of enzyme activity that remains
Fms(h) = Fms(h) (Homo sapiens, UniProt P07333); experiment: Upstate kinase activity inhibition assay Fms(h); conditions: 40 min, read-out: percentage of enzyme activity that remains
Ros(h) = biological target: T9, Ros(h) (Homo sapiens, UniProt P08922); experiment: Upstate kinase activity inhibition assay Ros(h); format: biochemical; conditions: 40 min; read-out: percentage of enzyme activity that remains
T9 construct: purchased Upstate (KinaseProfiler service)

CDK9/cyclin T1(h) = biological target: T10, CDK9/cyclin T1(h) (Homo sapiens, UniProt P50750); experiment: Upstate kinase activity inhibition assay CDK9/cyclin T1(h); format: biochemical; conditions: 40 min; read-out: percentage of enzyme activity that remains
T10 construct: purchased Upstate (KinaseProfiler service)

Fyn(h) = biological target: T11, Fyn(h) (Homo sapiens, UniProt P06241); experiment: Upstate kinase activity inhibition assay Fyn(h); format: biochemical; conditions: 40 min; read-out: percentage of enzyme activity that remains
T11 construct: purchased Upstate (KinaseProfiler service)

Chain of CDK1/cyclinB(h) (P06493 whole entry): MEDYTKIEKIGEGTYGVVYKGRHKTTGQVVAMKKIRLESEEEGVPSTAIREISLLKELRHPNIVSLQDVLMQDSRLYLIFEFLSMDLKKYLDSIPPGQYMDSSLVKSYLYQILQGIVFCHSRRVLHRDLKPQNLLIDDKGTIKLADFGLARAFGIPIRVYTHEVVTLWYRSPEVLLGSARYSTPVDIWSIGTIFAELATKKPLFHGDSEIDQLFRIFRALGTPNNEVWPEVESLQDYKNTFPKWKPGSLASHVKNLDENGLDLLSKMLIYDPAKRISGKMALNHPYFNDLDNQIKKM
Chain of CDK1/cyclinB(h) (P14635 whole entry partner): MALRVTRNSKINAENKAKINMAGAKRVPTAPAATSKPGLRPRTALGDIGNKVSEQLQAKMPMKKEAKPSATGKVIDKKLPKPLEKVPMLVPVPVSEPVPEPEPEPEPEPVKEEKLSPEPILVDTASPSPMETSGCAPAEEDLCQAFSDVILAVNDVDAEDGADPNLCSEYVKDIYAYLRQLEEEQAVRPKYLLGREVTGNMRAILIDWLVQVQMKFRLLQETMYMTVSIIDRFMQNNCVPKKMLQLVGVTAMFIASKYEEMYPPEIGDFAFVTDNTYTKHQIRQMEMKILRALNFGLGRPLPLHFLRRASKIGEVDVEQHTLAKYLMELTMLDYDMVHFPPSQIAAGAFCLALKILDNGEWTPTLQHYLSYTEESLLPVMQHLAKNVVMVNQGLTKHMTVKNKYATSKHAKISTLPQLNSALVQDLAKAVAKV
Chain of MuSK(h) (O15146 24-869): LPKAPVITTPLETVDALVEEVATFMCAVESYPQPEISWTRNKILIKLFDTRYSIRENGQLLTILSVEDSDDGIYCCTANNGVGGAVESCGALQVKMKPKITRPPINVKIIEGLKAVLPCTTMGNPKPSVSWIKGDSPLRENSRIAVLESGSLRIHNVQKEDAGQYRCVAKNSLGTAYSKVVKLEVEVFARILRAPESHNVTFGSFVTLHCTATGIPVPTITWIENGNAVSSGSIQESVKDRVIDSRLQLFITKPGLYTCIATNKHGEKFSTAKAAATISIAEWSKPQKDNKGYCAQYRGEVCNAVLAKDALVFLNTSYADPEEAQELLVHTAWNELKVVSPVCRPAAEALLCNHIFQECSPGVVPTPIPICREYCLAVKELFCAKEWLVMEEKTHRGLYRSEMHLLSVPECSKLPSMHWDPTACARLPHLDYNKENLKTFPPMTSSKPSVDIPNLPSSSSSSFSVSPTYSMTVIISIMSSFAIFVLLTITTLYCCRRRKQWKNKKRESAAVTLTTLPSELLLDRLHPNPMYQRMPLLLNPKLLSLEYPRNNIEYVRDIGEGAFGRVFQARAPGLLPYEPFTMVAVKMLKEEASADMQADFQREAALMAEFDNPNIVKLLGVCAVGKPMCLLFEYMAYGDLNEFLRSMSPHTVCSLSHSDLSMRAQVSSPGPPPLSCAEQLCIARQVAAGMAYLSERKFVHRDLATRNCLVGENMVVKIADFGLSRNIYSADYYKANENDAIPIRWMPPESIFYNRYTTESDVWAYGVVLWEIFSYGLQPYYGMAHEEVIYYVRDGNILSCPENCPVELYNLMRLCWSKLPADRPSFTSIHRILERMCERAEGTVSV
Chain of NEK11(h) (Q8NG66 whole entry): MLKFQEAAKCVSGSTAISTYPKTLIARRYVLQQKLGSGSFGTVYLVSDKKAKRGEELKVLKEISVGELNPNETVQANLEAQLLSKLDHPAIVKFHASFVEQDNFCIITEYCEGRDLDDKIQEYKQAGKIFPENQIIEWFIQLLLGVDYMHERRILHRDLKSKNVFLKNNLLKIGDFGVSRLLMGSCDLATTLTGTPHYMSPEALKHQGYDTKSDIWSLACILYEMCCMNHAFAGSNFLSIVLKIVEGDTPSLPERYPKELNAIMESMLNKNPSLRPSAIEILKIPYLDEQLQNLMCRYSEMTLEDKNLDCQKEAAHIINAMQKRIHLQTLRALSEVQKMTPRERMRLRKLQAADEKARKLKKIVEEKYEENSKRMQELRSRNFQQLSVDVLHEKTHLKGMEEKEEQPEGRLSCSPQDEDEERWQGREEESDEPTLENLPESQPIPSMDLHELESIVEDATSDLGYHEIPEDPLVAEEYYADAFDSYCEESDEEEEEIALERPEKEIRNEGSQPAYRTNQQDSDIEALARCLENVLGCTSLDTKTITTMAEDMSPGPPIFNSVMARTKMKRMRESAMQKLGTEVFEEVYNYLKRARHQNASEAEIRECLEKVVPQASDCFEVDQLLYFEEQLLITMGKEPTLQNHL
T1 sequence (P05771 whole entry): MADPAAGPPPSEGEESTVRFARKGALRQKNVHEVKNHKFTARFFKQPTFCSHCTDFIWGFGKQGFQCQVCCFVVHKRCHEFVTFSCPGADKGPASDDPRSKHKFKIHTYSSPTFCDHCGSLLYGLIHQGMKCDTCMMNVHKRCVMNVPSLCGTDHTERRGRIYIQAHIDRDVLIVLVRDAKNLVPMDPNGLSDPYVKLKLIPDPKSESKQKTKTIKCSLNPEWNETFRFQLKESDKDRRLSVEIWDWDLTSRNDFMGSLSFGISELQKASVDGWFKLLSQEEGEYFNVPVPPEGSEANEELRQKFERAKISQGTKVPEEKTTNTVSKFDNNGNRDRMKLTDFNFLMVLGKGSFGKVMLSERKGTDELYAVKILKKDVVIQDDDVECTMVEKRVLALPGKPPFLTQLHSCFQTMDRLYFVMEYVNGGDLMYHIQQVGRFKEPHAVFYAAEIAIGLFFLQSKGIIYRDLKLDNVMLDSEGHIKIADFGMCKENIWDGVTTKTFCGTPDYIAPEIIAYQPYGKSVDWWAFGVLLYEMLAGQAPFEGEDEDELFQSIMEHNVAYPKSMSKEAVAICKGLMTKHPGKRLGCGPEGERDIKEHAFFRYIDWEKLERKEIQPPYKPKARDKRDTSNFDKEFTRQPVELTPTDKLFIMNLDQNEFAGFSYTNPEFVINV
Chain of ARK5(h) (O60285 whole entry): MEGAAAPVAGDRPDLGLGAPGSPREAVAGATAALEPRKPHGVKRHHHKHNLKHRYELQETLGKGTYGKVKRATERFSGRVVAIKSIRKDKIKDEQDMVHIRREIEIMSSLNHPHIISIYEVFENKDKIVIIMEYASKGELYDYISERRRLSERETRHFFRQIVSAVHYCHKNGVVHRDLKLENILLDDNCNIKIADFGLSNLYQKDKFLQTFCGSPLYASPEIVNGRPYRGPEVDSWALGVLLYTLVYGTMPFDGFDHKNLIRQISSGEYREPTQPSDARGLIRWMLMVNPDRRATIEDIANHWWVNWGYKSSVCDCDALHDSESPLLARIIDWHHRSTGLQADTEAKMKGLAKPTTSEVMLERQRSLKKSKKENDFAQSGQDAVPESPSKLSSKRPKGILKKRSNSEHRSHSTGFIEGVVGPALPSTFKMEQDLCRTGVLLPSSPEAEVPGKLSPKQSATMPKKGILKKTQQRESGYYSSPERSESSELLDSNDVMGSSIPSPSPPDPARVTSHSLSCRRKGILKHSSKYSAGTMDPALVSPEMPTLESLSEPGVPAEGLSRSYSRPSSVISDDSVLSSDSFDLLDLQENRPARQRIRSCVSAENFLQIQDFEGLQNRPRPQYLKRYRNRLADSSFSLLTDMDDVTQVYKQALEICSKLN
Chain of HIPK1(h) (Q86Z02 whole entry): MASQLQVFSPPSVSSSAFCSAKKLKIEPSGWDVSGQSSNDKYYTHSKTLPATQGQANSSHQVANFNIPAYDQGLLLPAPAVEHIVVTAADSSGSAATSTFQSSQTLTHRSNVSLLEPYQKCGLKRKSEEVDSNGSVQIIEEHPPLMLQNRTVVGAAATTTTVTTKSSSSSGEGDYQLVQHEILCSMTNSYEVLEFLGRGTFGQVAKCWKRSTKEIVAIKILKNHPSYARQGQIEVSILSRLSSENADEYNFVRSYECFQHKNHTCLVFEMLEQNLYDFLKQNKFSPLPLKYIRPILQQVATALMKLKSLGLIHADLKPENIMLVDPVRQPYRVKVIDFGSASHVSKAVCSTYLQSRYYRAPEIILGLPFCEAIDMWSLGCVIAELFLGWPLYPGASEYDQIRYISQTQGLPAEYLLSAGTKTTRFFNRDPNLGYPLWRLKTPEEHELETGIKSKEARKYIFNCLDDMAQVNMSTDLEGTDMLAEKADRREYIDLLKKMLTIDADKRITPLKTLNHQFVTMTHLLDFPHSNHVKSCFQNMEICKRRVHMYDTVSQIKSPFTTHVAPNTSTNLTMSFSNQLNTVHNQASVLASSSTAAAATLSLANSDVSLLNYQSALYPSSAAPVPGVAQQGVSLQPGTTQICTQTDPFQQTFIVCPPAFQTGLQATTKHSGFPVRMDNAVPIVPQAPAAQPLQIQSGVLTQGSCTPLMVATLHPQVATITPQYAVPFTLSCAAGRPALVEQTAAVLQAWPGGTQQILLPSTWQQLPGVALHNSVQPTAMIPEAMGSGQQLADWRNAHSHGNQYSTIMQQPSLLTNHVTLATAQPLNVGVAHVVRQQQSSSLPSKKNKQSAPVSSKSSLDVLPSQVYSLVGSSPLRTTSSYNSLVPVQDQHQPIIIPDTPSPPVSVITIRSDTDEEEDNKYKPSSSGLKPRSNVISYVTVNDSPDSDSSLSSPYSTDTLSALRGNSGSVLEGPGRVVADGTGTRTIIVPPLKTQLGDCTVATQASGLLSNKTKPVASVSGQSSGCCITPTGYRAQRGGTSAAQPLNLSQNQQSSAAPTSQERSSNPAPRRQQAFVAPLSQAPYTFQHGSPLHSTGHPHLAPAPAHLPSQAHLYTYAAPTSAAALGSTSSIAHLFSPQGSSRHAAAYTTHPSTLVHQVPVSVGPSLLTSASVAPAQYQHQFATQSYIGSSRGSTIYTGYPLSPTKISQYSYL

Cc1cc(Nc2cc(N3CCN(C)CC3)nc(Sc3ccc(NC(=O)C4CC4)cc3)n2)n[nH]1 [Compound E, Cyclopropane carboxylic acid {4-[4-(4-methyl-piperazin-1-yl)-6-(5-methyl-2H-pyrazol-3-ylamino)-pyrimidin-2-ylsulphanyl]-phenyl}-amide]
remaining activity at 0.2 µM (BRK(h)): 102%
remaining activity at 4 µM (BRK(h)): 83%
remaining activity at 0.2 µM (PKCβI(h)): 100%
remaining activity at 4 µM (PKCβI(h)): 98%
remaining activity at 0.2 µM (MuSK(h)): 89%
remaining activity at 4 µM (MuSK(h)): 8%
percentage of enzyme activity that remains (EphB2(h); 0.2 μM Compound E): 121%
percentage of enzyme activity that remains (EphB2(h); 4 μM Compound E): 107%
remaining activity at 0.2 µM (MINK(h)): 103%
remaining activity at 4 µM (MINK(h)): 82%
remaining activity at 0.2 µM (Lyn(h)): 45%
remaining activity at 4 µM (Lyn(h)): 3%
remaining activity at 0.2 µM (NEK11(h)): 106%
remaining activity at 4 µM (NEK11(h)): 106%
remaining activity at 0.2 µM (Flt3(h)): 21%
remaining activity at 4 µM (Flt3(h)): 7%
remaining activity at 0.2 µM (SAPK4(h)): 96%
remaining activity at 4 µM (SAPK4(h)): 92%
percentage of enzyme activity that remains (ARK5(h); 0.2 μM Compound E): 53%
percentage of enzyme activity that remains (ARK5(h); 4 μM Compound E): 11%
remaining activity at 0.2 µM (HIPK1(h)): 100%
remaining activity at 4 µM (HIPK1(h)): 100%
remaining activity at 0.2 µM (ALK4(h)): 103%
remaining activity at 4 µM (ALK4(h)): 124%
remaining activity at 0.2 µM (IRAK1(h)): 107%
remaining activity at 4 µM (IRAK1(h)): 108%
percentage of enzyme activity that remains (IRAK4(h)): 90%
remaining activity at 0.2 µM (CDK1/cyclinB(h)): 108%
remaining activity at 4 µM (CDK1/cyclinB(h)): 102%
remaining activity at 0.2 µM (Pyk2(h)): 100%
remaining activity at 4 µM (Pyk2(h)): 59%
remaining activity at 0.2 µM (BrSK2(h)): 102%
remaining activity at 4 µM (BrSK2(h)): 96%
percentage of enzyme activity that remains (Snk(h); 0.2 μM Compound E): 99%
percentage of enzyme activity that remains (Snk(h); 4 μM Compound E): 103%
percentage of enzyme activity that remains (MKK7β(h); 0.2 μM Compound E): 91%
percentage of enzyme activity that remains (MKK7β(h); 4 μM Compound E): 97%
remaining activity at 4 µM (Mnk2(h)): 96%
remaining activity at 0.2 µM (IKKβ(h)): 106%
remaining activity at 4 µM (IKKβ(h)): 117%
remaining activity at 0.2 µM (Rsk3(h)): 96%
remaining activity at 4 µM (Rsk3(h)): 60%
remaining activity at 0.2 µM (EphA4(h)): 103%
remaining activity at 4 µM (EphA4(h)): 61%
remaining activity at 0.2 µM (Fgr(h)): 71%
remaining activity at 4 µM (Fgr(h)): 12%
percentage of enzyme activity that remains (EGFR(L858R)(h)): 77%
remaining activity at 0.2 µM (IGF-1R(h)): 76%
remaining activity at 4 µM (IGF-1R(h)): 26%
remaining activity at 0.2 µM (Fms(h)): 139%
remaining activity at 4 µM (Fms(h)): 54%
remaining activity at 4 µM (Ros(h)): 80%
remaining activity at 0.2 µM (CDK9/cyclin T1(h)): 80%
remaining activity at 4 µM (CDK9/cyclin T1(h)): 84%
remaining activity at 4 µM (Fyn(h)): 4%
